Test results as given in US11655216B2 (priority 2016, dated 2023).
Where two headings read alike, the source gives them in different places.

What was measured:
[1] = biological target: T1, glutathione-S-transferase (GST) tagged LXRbeta LBD (ligand binding domain) (Homo sapiens, UniProt P55055); experiment: LanthaScreen TR-FRET Liver X Receptor Coactivator Assay, LXR beta; assay type: biochemical; conditions: for EC50: LXR beta IP, potency (Inflection Point), compound-induced co-activator recruitment, TR-FRET; for Emax: read-out: LXR beta actiivty at max dose, efficacy (% Emax) in relation to reference dual agonist T0901317; for LXR beta actiivty at max dose: efficacy (% Emax) in relation to reference dual agonist T0901317
T1 construct: purchased Invitrogen pv4658
T1 sequence (P55055 222-460 limits assumed): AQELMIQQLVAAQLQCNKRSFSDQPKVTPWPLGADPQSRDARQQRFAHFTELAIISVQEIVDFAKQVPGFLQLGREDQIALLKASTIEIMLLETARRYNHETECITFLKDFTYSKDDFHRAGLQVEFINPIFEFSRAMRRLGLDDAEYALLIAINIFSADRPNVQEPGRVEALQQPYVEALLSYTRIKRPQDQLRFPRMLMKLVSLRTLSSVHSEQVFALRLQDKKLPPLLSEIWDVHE
Outline: (§1)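 Measures ligand-driven coactivator peptide binding by time-resolved energy transfer between terbium-tagged anti-GST antibody and fluorescein-labelled peptide. Incubation is at room temperature.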

[2] = biological target: T2, glutathione-S-transferase (GST) tagged LXRalpha LBD (ligand binding domain) (Homo sapiens, UniProt Q13133); experiment: biochemical
T2 construct: purchased Invitrogen pv4655
T2 sequence (Q13133 209-447 limits assumed): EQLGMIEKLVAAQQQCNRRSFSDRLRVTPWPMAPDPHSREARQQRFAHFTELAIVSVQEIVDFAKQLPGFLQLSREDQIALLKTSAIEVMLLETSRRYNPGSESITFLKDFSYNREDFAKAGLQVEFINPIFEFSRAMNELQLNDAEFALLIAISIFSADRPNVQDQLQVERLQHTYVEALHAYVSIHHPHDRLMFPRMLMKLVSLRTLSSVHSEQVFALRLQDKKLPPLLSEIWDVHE
Outline: as §1

[3] = LXR alpha IP, potency (Inflection Point), compound-induced co-activator recruitment, TR-FRET
[4] = read-out: LXR alpha actiivty at max dose, efficacy (% Emax) in relation to reference dual agonist T0901317
[5] = potency (Inflection Point), compound-induced co-activator recruitment, TR-FRET
[6] = efficacy (% Emax) in relation to reference dual agonist T0901317, read-out: LXR alpha actiivty at max dose
[7] = potency (Inflection Point), compound-induced co-activator recruitment, TR-FRET, read-out: LXR alpha IP

Row | Compound | EC50 [1] | Emax [1] | EC50 [2, 3] | Emax [2, 4] | LXR alpha IP [2, 5] | LXR alpha IP [2] | Emax ([2]; read-out: LXR alpha actiivty at max dose) | LXR beta actiivty at max dose [1] | Emax [2, 6] | EC50 [2, 7] | LXR alpha actiivty at max dose ([2]; efficacy (% Emax) in relation to reference dual agonist T0901317)
1 | CN(C)C(=O)c1ccc(OCCC2CC3(CCN(C(=O)C(O)(c4ccccc4)C(F)(F)F)CC3)C2)cc1Cl (single isomer, unassigned) [Example 34-1, 2-chloro-N,N-dimethyl-4-(2-(7-((R or S)-3,3,3-trifluoro-2-hydroxy-2-phenylpropanoyl)-7-azaspiro[3.5]nonan-2-yl)ethoxy)benzamide] | 16 nM | 113% | 551 nM | 46% |  |  |  |  |  |  | 
2 | CN(C)C(=O)c1ccc(OCCC2CC23CCN(C(=O)C2(c4cncnc4)CCC2)CC3)cc1Cl (single isomer, unassigned) [Example 12-19, (S or R)-2-chloro-N,N-dimethyl-4-(2-(6-(1-(pyrimidin-5-yl)cyclobutanecarbonyl)-6-azaspiro[2.5]octan-1-yl)ethoxy)benzamide] | 426 nM | 12% |  | 14% | No IP |  |  |  |  |  | 
3 | CN(C)C(=O)c1ccc(OCCC2CC23CCN(C(=O)C2(c4ccccc4Cl)CCC2)CC3)cc1Cl (single isomer, unassigned) [Example 12-5, (R or S)-2-chloro-4-(2-(6-(1-(2-chlorophenyl)cyclobutanecarbonyl)-6-azaspiro[2.5]octan-1-yl)ethoxy)-N,N-dimethylbenzamide] | 3 nM | 54% | 91 nM | 49% |  |  |  |  |  |  | 
4 | COc1cccc([C@@](O)(C(=O)N2CCC(CCCCOc3ccc(C(=O)N(C)C)c(C#N)n3)CC2)C(F)(F)F)c1 (single isomer, unassigned) [Example 4-2, (R or S)-2-cyano-N,N-dimethyl-6-(4-(1-(3,3,3-trifluoro-2-hydroxy-2-(3-methoxyphenyl)propanoyl)piperidin-4-yl)butoxy) nicotinamide] | 12 nM | 81% | 488 nM | 28% |  |  |  |  |  |  | 
5 | CN(C)C(=O)c1ccc(OCCCC2CCN(C(=O)c3cc(F)ccc3F)CC2)cc1Cl [Example 3-1, 2-chloro-4-(3-(1-(2,5-difluorobenzoyl)piperidin-4-yl)propoxy)-N,N-dimethylbenzamide] | 501 nM | 62% |  |  |  | No IP | 32% |  |  |  | 
6 | COc1cccc(C(O)(C(=O)N2CCC3(CCC(Oc4ccc(C(=O)N(C)C)c(Cl)n4)CC3)CC2)C(F)(F)F)c1 (single isomer, unassigned) [Example 1-2, 2-chloro-N,N-dimethyl-6-(3-((S or R)-3,3,3-trifluoro-2-hydroxy-2-(3-methoxyphenyl)propanoyl)-3-azaspiro[5.5]undecan-9-yloxy)nicotinamide] | 92 nM |  | 1880 nM | 35% |  |  |  | 120% |  |  | 
7 | CC(C)[C@@](O)(C(=O)N1CCC2(CC1)C[C@H]2CCOc1ccc(C(=O)N(C)C)c(Cl)c1)C(F)(F)F (single isomer, unassigned) [Example 12-15, 2-chloro-4-(2-((S or R)-6-((R or S)-2-hydroxy-3-methyl-2-(trifluoromethyl)butanoyl)-6-azaspiro[2.5]octan-1-yl)ethoxy)-N,N-dimethylbenzamide] | 62 nM | 79% | 2090 nM | 37% |  |  |  |  |  |  | 
8 | CC(CCC1CCN(C(=O)[C@](O)(c2ccccc2)C(F)(F)F)CC1)COc1ccc(C(=O)N(C)C)c(Cl)c1 (single isomer, unassigned) [Example 23-1, 2-chloro-N,N-dimethyl-4-((R or S)-2-methyl-4-(1-((R or S)-3,3,3-trifluoro-2-hydroxy-2-phenylpropanoyl)piperidin-4-yl)butoxy)benzamide] | 24 nM | 74% |  |  |  |  |  |  | 23% | 436 nM | 
9 | CN(C)C(=O)c1ccc(OCC2CC3(CCN(C(=O)C(C)(C)c4ccccc4)CC3)C2)cc1Cl [Example 33-2, 2-chloro-N,N-dimethyl-4-((7-(2-methyl-2-phenylpropanoyl)-7-azaspiro[3.5]nonan-2-yl)methoxy)benzamide] | 220 nM | 60% |  | 8% | No IP |  |  |  |  |  | 
10 | CN(C)C(=O)c1ccc(OCC[C@H]2C[C@H]2C2CCN(C(=O)[C@](O)(c3ccccc3)C(F)(F)F)CC2)cc1C#N (single isomer, unassigned) [Example 11-1, 2-cyano-N,N-dimethyl-4-(2-((1R,2S or 1S,2R)-2-(1-((R or S)-3,3,3-trifluoro-2-hydroxy-2-phenylpropanoyl)piperidin-4-yl)cyclopropyl)ethoxy)benzamide] | 106 nM | 78% |  |  |  |  |  |  | 23% | 1420 nM | 
11 | O=C(NCC(F)F)c1ccc(OCCCCC2CCN(C(=O)[C@](O)(c3ccccc3)C(F)(F)F)CC2)cc1Cl (single isomer, unassigned) [Example 8-9, (R or S)-2-chloro-N-(2,2-difluoroethyl)-4-(4-(1-(3,3,3-trifluoro-2-hydroxy-2-phenylpropanoyl)piperidin-4-yl)butoxy) benzamide] | 94 nM | 82% | 856 nM | 34% |  |  |  |  |  |  | 
12 | O=C(c1cscn1)N1CCC(CCCCOc2ccc(C(=O)N3CCCC3)c(Cl)c2)CC1 [Example 8-20, (2-chloro-4-(4-(1-(thiazole-4-carbonyl)piperidin-4-yl)butoxy)phenyl) (pyrrolidin-1-yl)methanone] | 4410 nM | 25% |  | 4% | No IP |  |  |  |  |  | 
13 | CN(C)C(=O)c1ccc(O[C@H]2C[C@@H](CC3CCN(C(=O)[C@](O)(c4cccc(OC5CC5)c4)C(F)(F)F)CC3)C2)cc1Cl (single isomer, unassigned) [Example 37-2, 2-chloro-4-((1R,3s)-3-((1-((R or S)-2-(3-cyclopropoxyphenyl)-3,3,3-trifluoro-2-hydroxypropanoyl)piperidin-4-yl)methyl)cyclobutoxy)-N,N-dimethylbenzamide] | 40 nM | 109% |  | 2% | No IP |  |  |  |  |  | 
14 | CC(CCCOc1ccc(C(=O)N(C)C)c(Cl)c1)C1CCN(C(=O)C(O)(c2ccccc2)C(F)(F)F)CC1 (single isomer, unassigned) [Example 26-3, 2-chloro-N,N-dimethyl-4-((S or R)-4-(1-((R or S)-3,3,3-trifluoro-2-hydroxy-2-phenylpropanoyl)piperidin-4-yl)pentyloxy)benzamide] | 6 nM |  | 125 nM |  |  |  |  | 77% |  |  | 48%
15 | CN(C)C(=O)c1ccc(OCC(C)(C)CCC2CCN(C(=O)C(O)(c3ccccc3)C(F)(F)F)CC2)cc1Cl (single isomer, unassigned) [Example 29-1, (R or S)-2-chloro-4-(2,2-dimethyl-4-(1-(3,3,3-trifluoro-2-hydroxy-2-phenylpropanoyl)piperidin-4-yl)butoxy)-N,N-dimethylbenzamide] | 173 nM | 48% | 911 nM | 27% |  |  |  |  |  |  | 
16 | O=C(c1ccc(OCCCCC2CCN(C(=O)C(O)(c3ccccc3)C(F)(F)F)CC2)cc1Cl)N1CCC1 (single isomer, unassigned) [Example 8-1, (R or S)-1-(4-(4-(4-(azetidine-1-carbonyl)-3-chlorophenoxy)butyl)piperidin-1-yl)-3,3,3-trifluoro-2-hydroxy-2-phenylpropan-1-one] | 33 nM | 55% | 328 nM | 10% |  |  |  |  |  |  | 
